Experimental data as given in PMC6348443 (Journal of Medicinal Chemistry, 2018).
Entries after “also recorded” stand apart in the source; their conditions may differ. Structures can show the parent of a compound that is named as a salt. Where two headings read alike, the source gives them in different places.

How the values were obtained:
MOR [1] = target: T1, MOR (Homo sapiens, UniProt P35372); experiment: [35S]GTPγS binding assay, CHO-hMOR membranes; type: biochemical; conditions: for Emax: relative to reference full agonist DAMGO, read-out: MOR % stim.; for functional profile at MOR (full/partial agonist): full agonist ≥85% of the response to DAMGO
T1 construct: host or cells: CHO (CHO-hMOR)

DOR [2] = target: T2, DOR (Homo sapiens, UniProt P41143); experiment: [35S]GTPγS binding assay, CHO-hDOR membranes; type: biochemical; conditions: for EC50: [35S]GTPγS, CHO human DOR membranes; for Emax: relative to reference full agonist DPDPE, read-out: DOR % stim.
T2 construct: host or cells: CHO (CHO-hDOR)

KOR [3] = target: T3, KOR (Homo sapiens, UniProt P41145); experiment: [35S]GTPγS binding assay, CHO-hKOR membranes; type: biochemical; conditions: for EC50: [35S]GTPγS, CHO human KOR membranes, read-out: KOR EC50; for Emax: relative to reference full agonist U69,593, read-out: KOR % stim.; for functional profile at KOR (full/partial agonist): partial agonist <85% of the response to U69,593
T3 construct: host or cells: CHO (CHO-hKOR)

male CD1 mice = experiment: acetic acid-induced writhing assay after sc administration; type: in vivo, mouse; conditions: for ED50: Mus musculus, 0.5 h, read-out: ED50 (95% CI), mice, sc, inhibition of writhing 30 min after drug administration
[4] = tested on: peripheral opioid receptors; experiment: antagonism by naloxone methiodide in the acetic acid-induced writhing assay; type: in vivo, mouse; conditions: sc co-administration with naloxone methiodide 1 mg/kg; agonist 50 or 200 μg/kg sc; 30 min
Excerpt: To determine whether targeted 6-amino acid and 6-dipeptide analogues inhibit writhing behavior in mice through peripheral opioid receptors activation, we used naloxone methiodide.[27]
Values are shown as mean of writhes ± SEM (n = 6–7 mice per group). ***P < 0.001 vs control group; ^#P < 0.05, ^##P < 0.01 and ^###P < 0.001 vs agonist treated group, ANOVA with Tukey’s post hoc test.
Writhing was induced in male CD1 mice by ip injection of a 0.6% acetic acid aqueous solution as described previously.[48],[62] Groups of mice were administered sc different doses of test compound or saline (control), and 5 min prior to testing (25 min after drug or saline), each animal received an ip injection of acetic acid solution. Each mouse was placed in individual transparent Plexiglas chambers, and the number of writhes was counted during a 10 min observation period. […] For the antagonism study, naloxone methiodide was sc co-administered with the respective opioid agonist, and writhing was assessed as described above.

MOR [5] = target: T4, MOR (Rattus norvegicus, UniProt P33535); experiment: competition radioligand binding, rat brain membranes, [3H]DAMGO; conditions: for Ki: rat brain membranes, read-out: opioid receptor binding Ki MOR
T4 construct: Membranes were prepared from Sprague-Dawley rat brains or guinea-pig brains according to the described procedures; tissue Labortierkunde und Laborgenetik, Medizinische Universität Wien; host or cells: Sprague-Dawley rat brain without cerebella

DOR [6] = target: T5, DOR (Rattus norvegicus, UniProt P33533); experiment: competition radioligand binding, rat brain membranes, [3H][Ile5,6]deltorphin II; conditions: for Ki: rat brain membranes, read-out: opioid receptor binding Ki DOR
T5 construct: Membranes were prepared from Sprague-Dawley rat brains or guinea-pig brains according to the described procedures; tissue Labortierkunde und Laborgenetik, Medizinische Universität Wien; host or cells: Sprague-Dawley rat brain without cerebella

KOR [7] = target: T6, KOR (Cavia porcellus, UniProt P41144); experiment: competition radioligand binding, guinea-pig brain membranes, [3H]U69,593; conditions: guinea-pig brain membranes; read-out: opioid receptor binding Ki KOR
T6 construct: Membranes were prepared from Sprague-Dawley rat brains or guinea-pig brains according to the described procedures; tissue Labortierkunde und Laborgenetik, Medizinische Universität Wien; host or cells: guinea-pig brain without cerebella

MOR [8] = target: T1, MOR; experiment: competition radioligand binding, CHO cell membranes expressing human MOR, [3H]DAMGO
Method: (§1) Membranes from CHO cells expressing human opioid receptors were prepared in 50 mM Tris-HCl buffer (pH 7.7) according to a previously described procedure.[64] Cells expressing human opioid receptors grown at confluence were removed from the culture plates by scraping, homogenized in 50 mM Tris buffer (pH 7.7), using a Polytron homogenizer, then centrifuged once and washed by an additional centrifugation at 27 000g for 15 min, at 4 °C. The final pellet was resuspended in Tris buffer and stored at −80 °C until use. Protein content of brain and cell membrane preparation homogenates was determined by the method of Bradford using bovine serum albumin as the standard.[65]
(§2) Rat brain membranes were incubated with either [^3H]DAMGO (1 nM, 45 min, 35 °C) or [^3H][Ile^5,6]deltorphin II (0.5 nM, 45 min, 35 °C) for labeling MOR or DOR receptors, respectively. Guinea-pig brain membranes were incubated with [^3H]U69,593 (1 nM, 30 min, 30 °C) for labeling KOR. Binding assays with CHO cell membranes were conducted at 25 °C for 60 min using [^3H]DAMGO (1 nM) or [^3H]diprenorphine (0.2 nM) for labeling MOR or DOR, respectively. Nonspecific binding was determined using 10 μM naloxone (rodent brain) or 1–10 μM of the unlabeled counterpart of each radioligand (CHO cells). Reactions were terminated by rapid filtration through Whatman glass fiber GF/C filters. Filters were washed three times with 5 mL of ice-cold 50 mM Tris-HCl buffer (pH 7.4) using a Brandel M24R cell harvester (Gaithersburg, MD). Radioactivity retained on the filters was counted by liquid scintillation counting using a Beckman Coulter LS6500 (Beckman Coulter Inc., Fullerton, CA). All binding experiments were performed in duplicate and repeated at least three times.
(§3) aDetermined in competition radioligand binding assays using CHO cell membranes expressing
(§4) human MOR and DOR. Values represent the mean ± SEM of three independent experiments each

DOR [9] = target: T2, DOR; experiment: competition radioligand binding, CHO cell membranes expressing human DOR, [3H]diprenorphine
Method: as §1, §2, §3, §4

[10] = [35S]GTPγS, CHO human MOR membranes, read-out: MOR EC50

Compound	EC50 (MOR [1]; [10]) [nM]	Emax (MOR [1]) [%]	EC50 (DOR [2]) [nM]	Emax (DOR [2]) [%]	EC50 (KOR [3]) [nM]	Emax (KOR [3]) [%]	ED50 (male CD1 mice) [mg/kg]	effect of naloxone methiodide on antinociceptive effect [4]	Ki (MOR [5]) [nM]	Ki (DOR [6]) [nM]	Ki (KOR [7]) [nM]	further results
CO[C@@]12CC[C@H](N[C@@H](CCCCN)C(=O)O)[C@@H]3Oc4c(O)ccc5c4[C@@]31CCN(C)[C@@H]2C5 [Compound 8a, (2S)-6-Amino-2-[(4,5α-epoxy-3-hydroxy-14β-methoxy-17-methylmorphinan-6α-yl)amino]hexanoic Acid Trihydrochloride]	2.25 ± 0.07	90 ± 8	152 ± 2	106 ± 4	118 ± 26	79 ± 13	0.0206	reversed	–	–	–	–
CO[C@@]12CC[C@@H](N[C@@H](CCCCN)C(=O)O)[C@@H]3Oc4c(O)ccc5c4[C@@]31CCN(C)[C@@H]2C5 [Compound 8b, (2S)-6-Amino-2-[(4,5α-epoxy-3-hydroxy-14β-methoxy-17-methylmorphinan-6β-yl)amino]hexanoic Acid Trihydrochloride]	6.85 ± 1.39	90 ± 7	45.1 ± 22.7	93 ± 8	525 ± 24	62 ± 7	–	antagonized	0.53 ± 0.09	3.34 ± 0.46	33.7 ± 4.1	–
CO[C@@]12CC[C@@H](N[C@@H](Cc3c[nH]c4ccccc34)C(=O)O)[C@@H]3Oc4c(O)ccc5c4[C@@]31CCN(C)[C@@H]2C5 [Compound 10b, (2S)-2-[(4,5α-Epoxy-3-hydroxy-14β-methoxy-17-methylmorphinan-6β-yl)-amino]-3-(1H-indolo-3yl)propionic Acid Dihydrochloride]	1.64 ± 0.43	101 ± 11	2.18 ± 0.72	96 ± 5	181 ± 49	87 ± 8	0.0927	reversed; also recorded: antagonized	–	–	–	functional profile at KOR (full/partial agonist) (KOR [3]): full agonists
CO[C@@]12CC[C@@H](N[C@H](Cc3ccccc3)C(=O)O)[C@@H]3Oc4c(O)ccc5c4[C@@]31CCN(C)[C@@H]2C5 [Compound 17b, (2R)-2-[(4,5α-Epoxy-3-hydroxy-14β-methoxy-17-methyl-morphinan-6β-yl)-amino]-3-phenylpropionic Acid Dihydrochloride]	0.68 ± 0.29	~80	1.71 ± 0.78	96 ± 1	611 ± 350	92 ± 10	0.25	–	1.28 ± 0.38	1.19 ± 0.13	139 ± 23	increase in MOR binding affinity vs comparator (MOR [5]; rat brain, 17b vs 4b, 16a/b vs 7a/b, 22a/b vs 7a, 7b and 9b, 14a vs 14b): ca. 2 times; EC50 (MOR [1]): < 1 nM; functional profile at MOR (full/partial agonist) (MOR [1]): partial agonist; functional profile at KOR (full/partial agonist) (KOR [3]): full agonists; Ki (MOR [8]): 1.84 ± 0.14 nM; Ki (DOR [9]): 2.17 ± 0.26 nM
CO[C@@]12CC[C@H](N[C@H](C(=O)O)C3CCCCC3)[C@@H]3Oc4c(O)ccc5c4[C@@]31CCN(C)[C@@H]2C5 [Compound 18a, (2S)-2-[(4,5α-Epoxy-3-hydroxy-14β-methoxy-17-methyl-morphinan-6α-yl)-amino]-2-cyclohexylacetic Acid Dihydrochloride]	2.88 ± 1.21	86 ± 8	20.5 ± 8	101 ± 1	250 ± 80	52 ± 6	0.0206	reversed	1.23 ± 0.2	14.3 ± 0.09	177 ± 30	Ki ratio MOR/DOR/KOR (MOR [5]; from Ki in rat (MOR, DOR) and guinea-pig (KOR) brain membranes): 1/12/144; decreased DOR affinity vs 6β analogue (DOR [6]; rat brain, 18a vs 18b, 19a vs 19b): 11 times
CO[C@@]12CC[C@@H](N[C@H](C(=O)O)C3CCCCC3)[C@@H]3Oc4c(O)ccc5c4[C@@]31CCN(C)[C@@H]2C5 [Compound 18b, (2S)-2-[(4,5α-Epoxy-3-hydroxy-14β-methoxy-17-methyl-morphinan-6β-yl)-amino]-2-cyclohexylacetic Acid Dihydrochloride]	5.33 ± 0.89	86 ± 9	3.57 ± 1.63	96 ± 10	282 ± 58	59 ± 7	–	antagonized	1.66 ± 1.04	1.3 ± 0.16	118 ± 23	–
CC[C@H](N[C@@H]1CC[C@@]2(OC)[C@H]3Cc4ccc(O)c5c4[C@@]2(CCN3C)[C@H]1O5)C(=O)O [Compound 19b, (2S)-2-[(4,5α-Epoxy-3-hydroxy-14β-methoxy-17-methylmorphinan-6β-yl)amino]-2-ethylacetic Acid Dihydrochloride]	5.47 ± 1.18	~80	2.22 ± 1.64	100 ± 3	572 ± 18	72 ± 0.5	–	antagonized	1.83 ± 0.04	1.3 ± 0.24	201 ± 10	increased agonist potency at DOR vs MOR (DOR [2]; [35S]GTPγS EC50): 2–4 times; Ki (MOR [8]): 2.1 ± 0.33 nM; Ki (DOR [9]): 1.99 ± 0.84 nM
CO[C@@]12CC[C@@H](NCC(=O)NCC(=O)O)[C@@H]3Oc4c(O)ccc5c4[C@@]31CCN(C)[C@@H]2C5 [Compound 23a, 2-[2-[(4,5-Epoxy-3-hydroxy-14β-methoxy-17-methylmorphinan-6β-yl)amino]acetylamino]acetic Acid]	4.39 ± 0.54	85 ± 9	2.84 ± 1.63	102 ± 7	885 ± 298	75 ± 0.7	0.104	antagonized	–	–	–	lower affinity at MOR vs 2a (MOR [5]; rat brain): about 5 times; functional profile at MOR (full/partial agonist) (MOR [1]): full agonist; functional profile at DOR (full/partial agonist) (DOR [2]; full agonist ≥85% of the response to DPDPE): full agonist; higher antinociceptive potency than morphine (male CD1 mice; writhing assay, mice): 4 times
